{
  "source": "patent US9085593B2",
  "about": "“Therapeutic agent for arthrosis” (SANSHO CO., LTD., priority 2011, dated 2015)",
  "key": {"[1]": {"system": "osteoarthritis in rabbit knee", "assay": "Swelling assessment (articular swelling of both hind limbs), rabbit knee osteoarthritis model", "format": "in vivo, rabbits (Kbs:NZW)", "procedure": "(§1) Twelve 11- to 12-week-old male rabbits (Kbs:NZW) were used. Rabbits were reared in separate cages (one rabbit per cage) at 14.4° C. to 24.9° C. under light (12 hours from 7:00 am to 7:00 pm) with continuous ventilation. Rabbits were allowed to eat 150 g of feed (CR-3, CLEA Japan, Inc.) per day and to drink tap water.\n(§2) (9Z)-9-Octadecenoic acid-(2-hydroxy-2-oxide-1,2-oxaphospholan-4-yl)methyl ester sodium salt (C18:1-cPA; hereafter, referred to as “ScPA”) was used.\n(§3) Hair in the vicinity of the knee joint of the right hind limb of a rabbit was shaved using electrical clippers under deep anesthesia, and the shaved area was disinfected with Isodine. The outer coat on the medial aspect of the right hind limb was incised with a surgical knife, the boundary between the medial aspect and the articular capsule of the patellofemoral ligament was further incised, and the medial patellofemoral ligament was then dissected. Thereafter, the articular capsule was spread wide open to expose the medial meniscus, which was then completely removed. Following the removal of the meniscus, tissue and epidermis in the vicinity of the articular capsule were sutured. At the time of suturing, the site of operation was washed with physiological saline (titer: 500 mg/20 ml) containing antibiotics (Viccillin, Meiji Seika Pharma Co., Ltd.).\n(§4) After the model animals were prepared, they were divided into two groups each consisting of 6 individuals while averaging body […] (i.e., the vehicle administered group of Animal Numbers 101 to 106 and the test substance (ScPA) administered group of Animal Numbers 201 to 206).\n(§5) The test compound and the vehicle were administered in the manner described below. • Route of administration: into the joint cavity • Site of administration: right hind limb (treated limb) • Timing of administration: on days 7, 11, 14, 18, 21, 25, 28, 32, 35, and 39 • Dosage: Test compound: 10 μg/rabbit (volume: 0.2 ml) • Vehicle: 0.2 ml/rabbit • Means of administration: with the use of a 1.0-ml syringe (Terumo Corporation) and a 27 G injection needle (Terumo Corporation) (1-5) Pain Assessment (Weight Distribution Across both Hind Limbs) Frequency of Measurement:\nMeasurement was carried out 6 weeks after the treatment.\nThe widest areas at the joints of the right and left hind limbs were measured using digital calipers, and the articular swelling induced by osteoarthritis was determined using the following equation. Swelling (%) of treated limb (right hind limb)=[(right hind limb (mm)−left hind limb (mm))/(left hind limb (mm)[…])]×100 (1-7) Sampling of Biomaterials (day 42) and Post-Sampling Treatment"}, "[2]": {"system": "osteoarthritis in rabbit knee", "assay": "Pain assessment (weight distribution across both hind limbs), rabbit knee osteoarthritis model", "format": "in vivo, rabbits (Kbs:NZW)", "conditions": "for Weight distribution, Mean / Left hind limb / Right hind limb / Weight distribution (%) on treated limb (right hind limb): 10 μg/rabbit into joint cavity; for Weight distribution, Mean: group mean n=6; for Left hind limb / Right hind limb / Weight distribution (%) on treated limb (right hind limb): individual animals 201-206, listed as Test substance, sodium salt", "procedure": "as §1, §2, §3, §4, §5\nMeasurement was carried out seven times in total: i.e., before treatment and 1, 2, 3, 4, 5, and 6 weeks after the treatment.\nBody weights loaded on the right hind limb and the left hind limb were separately measured using a weight scale, and the weight distribution on the treated limb (the right hind limb) was determined using the following equation. Weight distribution (%) on treated limb (right hind limb)=[right hind limb (kg)/(right hind limb (kg)+left hind limb (kg))]×100 (1-6) Swelling Assessment (Articular Swelling of both Hind Limbs) Frequency of Measurement: […]"}, "[3]": {"conditions": "joint width, 10 μg/rabbit into joint cavity, Day 42, individual animals 201-206, listed as Test substance, sodium salt"}},
  "note": "Where “and” joins values, the source holds several entries; their conditions need not be identical. Equal values may be shown once.",
  "data": [
    {"compound": "CCCCCCCC/C=C\\CCCCCCCC(=O)OCC1COP(=O)([O-])C1.[Na+]", "note": "(stereo not shown) [ScPA, (9Z)-9-Octadecenoic acid-(2-hydroxy-2-oxide-1,2-oxaphospholan-4-yl)methyl ester sodium salt]", "values": [
      {"measurement": "Swelling, Mean", "setting": "[1]; 10 μg/rabbit into joint cavity, Day 42, group mean n=6, p=0.0164 vs vehicle", "result": 0.6, "unit": "%"},
      {"measurement": "Swelling (%) of treated limb (right hind limb)", "setting": "[1]; 10 μg/rabbit into joint cavity, Day 42, individual animals 201-206, listed as Test substance, sodium salt", "result": "−1.75% and 1.58% and 3.72% and −5.46% and 6.59% and −1.97%"},
      {"measurement": "articular swelling compared with the vehicle administered group", "setting": "[1]; day 42, p=0.0164", "result": "inhibited more significantly"},
      {"measurement": "Left hind limb (mm)", "setting": "[1]; [3]", "result": "24.60 mm and 23.38 mm and 21.50 mm and 22.88 mm and 23.21 mm and 21.79 mm"},
      {"measurement": "Right hind limb (mm)", "setting": "[1]; [3]", "result": "24.17 mm and 23.75 mm and 22.30 mm and 21.63 mm and 24.74 mm and 21.36 mm"},
      {"measurement": "Weight distribution, Mean", "setting": "[2]; Day 0 (before treatment)", "result": 49.1, "unit": "%"},
      {"measurement": "Left hind limb", "setting": "[2]; Day 0 (before treatment)", "result": "610 g and 400 g and 550 g and 460 g and 260 g and 310 g"},
      {"measurement": "Right hind limb", "setting": "[2]; Day 0 (before treatment)", "result": "660 g and 320 g and 410 g and 490 g and 270 g and 350 g"},
      {"measurement": "Weight distribution (%) on treated limb (right hind limb)", "setting": "[2]; Day 0 (before treatment)", "result": "52% (2×) and 44% and 43% and 51% and 53%"},
      {"measurement": "Weight distribution, Mean", "setting": "[2]; Day 7", "result": 32.1, "unit": "%"},
      {"measurement": "Left hind limb", "setting": "[2]; Day 7", "result": "1010 g and 410 g and 900 g and 750 g (2×) and 880 g"},
      {"measurement": "Right hind limb", "setting": "[2]; Day 7", "result": "660 g and 160 g and 140 g and 520 g and 430 g and 460 g"},
      {"measurement": "Weight distribution (%) on treated limb (right hind limb)", "setting": "[2]; Day 7", "result": "40% and 28% and 13% and 41% and 33% and 38%"},
      {"measurement": "Weight distribution, Mean", "setting": "[2]; Day 14", "result": 39.4, "unit": "%"},
      {"measurement": "Left hind limb", "setting": "[2]; Day 14", "result": "770 g and 400 g and 640 g and 810 g and 700 g and 600 g"},
      {"measurement": "Right hind limb", "setting": "[2]; Day 14", "result": "520 g and 200 g and 320 g and 630 g and 380 g and 610 g"},
      {"measurement": "Weight distribution (%) on treated limb (right hind limb)", "setting": "[2]; Day 14", "result": "40% and 33% (2×) and 44% and 35% and 50%"},
      {"measurement": "Weight distribution, Mean", "setting": "[2]; Day 21", "result": 43.0, "unit": "%"},
      {"measurement": "Left hind limb", "setting": "[2]; Day 21", "result": "710 g and 440 g and 350 g and 580 g (2×) and 760 g"},
      {"measurement": "Right hind limb", "setting": "[2]; Day 21", "result": "380 g and 370 g and 720 g and 250 g and 450 g and 440 g"},
      {"measurement": "Weight distribution (%) on treated limb (right hind limb)", "setting": "[2]; Day 21", "result": "35% and 46% and 67% and 30% and 37% and 43%"},
      {"measurement": "Weight distribution, Mean", "setting": "[2]; Day 28", "result": 47.0, "unit": "%"},
      {"measurement": "Left hind limb", "setting": "[2]; Day 28", "result": "700 g and 290 g and 260 g and 750 g and 710 g and 800 g"},
      {"measurement": "Right hind limb", "setting": "[2]; Day 28", "result": "600 g (2×) and 150 g and 390 g and 660 g and 780 g"},
      {"measurement": "Weight distribution (%) on treated limb (right hind limb)", "setting": "[2]; Day 28", "result": "46% (2×) and 34% and 60% and 47% and 49%"},
      {"measurement": "Weight distribution, Mean", "setting": "[2]; Day 35", "result": 39.1, "unit": "%"},
      {"measurement": "Left hind limb", "setting": "[2]; Day 35", "result": "650 g and 800 g and 470 g and 1030 g and 570 g and 870 g"},
      {"measurement": "Right hind limb", "setting": "[2]; Day 35", "result": "350 g (2×) and 380 g and 630 g and 560 g and 510 g"},
      {"measurement": "Weight distribution (%) on treated limb (right hind limb)", "setting": "[2]; Day 35", "result": "35% and 30% and 45% and 38% and 50% and 37%"},
      {"measurement": "Weight distribution, Mean", "setting": "[2]; Day 42, p=0.0053 vs vehicle", "result": 46.7, "unit": "%"},
      {"measurement": "Left hind limb", "setting": "[2]; Day 42", "result": "620 g and 700 g and 380 g and 820 g and 840 g and 580 g"},
      {"measurement": "Right hind limb", "setting": "[2]; Day 42", "result": "440 g and 510 g and 630 g and 660 g and 520 g and 610 g"},
      {"measurement": "Weight distribution (%) on treated limb (right hind limb)", "setting": "[2]; Day 42", "result": "42% (2×) and 62% and 45% and 38% and 51%"},
      {"measurement": "weight loaded on the treated limb (the right hind limb) compared with the vehicle administered group", "setting": "[2]; after day 14 up to day 42", "result": "maintained at higher levels"}
    ]}
  ]
}
